Experiments:
B. subtilis 168 [1] = test: Bliss interaction score (quartile over a dose matrix) (fitness difference); higher = more antagonism (negative = synergy)
Summary of the method: (§1)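 Each plate was normalised to the robust mean of its own no-drug wells, using OD595 at entry into stationary phase, with values capped at 1. This normalised growth is the fitness value. The Bliss score is the difference between observed and product-expected fitness, with single-drug fitness inferred from the combination data and quartiles taken over technical, biological and donor/recipient replicates.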

S. pneumoniae D39V [2] = test: as above
Summary of the method: as §1

S. aureus Newman [3] = test: as above
Summary of the method: as §1

S. aureus DSM 20231 [4] = test: as above
Summary of the method: as §1

B. subtilis 168 [5] = test: fitness (endpoint OD595 vs no drug) (fraction); higher = more growth
Summary of the method: (§2)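 In 384-well plates at 37 °C, cultures began at OD595 0.01 in 30 µl, with 55 µl used for S. pneumoniae. OD595 readings every 30 min for 14 h were corrected by the first reading. Fitness divides the stationary-phase transition optical density by the robust mean of no-drug control wells. The result is capped at 1.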

S. pneumoniae D39V [6] = test: as above
Summary of the method: as §2

S. aureus Newman [7] = test: as above
Summary of the method: as §2

S. aureus DSM 20231 [8] = test: as above
Summary of the method: as §2
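For Bliss interaction score (quartile over a dose matrix) in this document: first quartile when negative (synergy) and third quartile when positive (antagonism).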

CCCCCCCCCC(=O)N[C@@H](Cc1c[nH]c2ccccc12)C(=O)N[C@H](CC(N)=O)C(=O)N[C@@H](CC(=O)O)C(=O)N[C@@H]1C(=O)NCC(=O)N[C@@H](CCCN)C(=O)N[C@@H](CC(=O)O)C(=O)N[C@H](C)C(=O)N[C@@H](CC(=O)O)C(=O)NCC(=O)N[C@H](CO)C(=O)N[C@@H]([C@H](C)CC(=O)O)C(=O)N[C@@H](CC(=O)c2ccccc2N)C(=O)O[C@@H]1C [Daptomycin] + CN[C@@H]1[C@H](O[C@H]2[C@H](O[C@H]3[C@H](O)[C@@H](O)[C@H](N=C(N)N)[C@@H](O)[C@@H]3N=C(N)N)O[C@@H](C)[C@]2(O)C=O)O[C@@H](CO)[C@H](O)[C@H]1O [Streptomycin]
Settings	Bliss interaction score
B. subtilis 168 [1]	-0.0625
S. aureus DSM 20231 [4]	0.0838
S. aureus Newman [3]	0.0589
S. pneumoniae D39V [2]	0.103

fitness
Settings	partner 1 µg/mL	partner 2 µg/mL	partner 4 µg/mL	partner 8 µg/mL
B. subtilis 168 [5], first compound 0.125 µg/mL	–	0.954	0.651	0.0465
B. subtilis 168 [5], first compound 0.25 µg/mL	–	0.977	–	0.0589
B. subtilis 168 [5], first compound 0.5 µg/mL	–	0.923	–	0.0321
S. aureus Newman [7], first compound 0.125 µg/mL	0.971	0.988	–	–
S. aureus Newman [7], first compound 0.25 µg/mL	0.964	0.985	–	–
S. aureus Newman [7], first compound 0.5 µg/mL	0.986	0.973	–	–
S. pneumoniae D39V [6], first compound 1 µg/mL	–	0.926	0.902	0.825
S. pneumoniae D39V [6], first compound 2 µg/mL	–	0.955	0.909	0.876
S. pneumoniae D39V [6], first compound 4 µg/mL	–	0.95	0.924	0.86

fitness, one replicate
Settings	first compound 1 µg/mL	first compound 2 µg/mL	first compound 4 µg/mL
B. subtilis 168 [5], partner 2 µg/mL	0.654	–	–
B. subtilis 168 [5], partner 4 µg/mL	0.245	–	–
B. subtilis 168 [5], partner 8 µg/mL	0.0183	–	–
S. pneumoniae D39V [6], partner 16 µg/mL	0.795	0.804	0.773

CCCCCCCCCC(=O)N[C@@H](Cc1c[nH]c2ccccc12)C(=O)N[C@H](CC(N)=O)C(=O)N[C@@H](CC(=O)O)C(=O)N[C@@H]1C(=O)NCC(=O)N[C@@H](CCCN)C(=O)N[C@@H](CC(=O)O)C(=O)N[C@H](C)C(=O)N[C@@H](CC(=O)O)C(=O)NCC(=O)N[C@H](CO)C(=O)N[C@@H]([C@H](C)CC(=O)O)C(=O)N[C@@H](CC(=O)c2ccccc2N)C(=O)O[C@@H]1C [Daptomycin] + CC(C1CCC(C(O1)OC2C(CC(C(C2O)OC3C(C(C(CO3)(C)O)NC)O)N)N)N)NC [Gentamicin]
main component drawn
Settings	Bliss interaction score
B. subtilis 168 [1]	0.136
S. aureus DSM 20231 [4]	0.0663
S. aureus Newman [3]	-0.0263
S. pneumoniae D39V [2]	0.0772

main component drawn
Settings	fitness
B. subtilis 168 [5], first compound 0.125 µg/mL, partner 0.0625 µg/mL	0.905
B. subtilis 168 [5], first compound 0.125 µg/mL, partner 0.25 µg/mL	0.0486
B. subtilis 168 [5], first compound 0.25 µg/mL, partner 0.0625 µg/mL	0.906
S. aureus Newman [7], first compound 0.125 µg/mL, partner 0.5 µg/mL	0.926
S. aureus Newman [7], first compound 0.125 µg/mL, partner 1 µg/mL	≥ 1
S. aureus Newman [7], first compound 0.125 µg/mL, partner 2 µg/mL	≥ 1
S. aureus Newman [7], first compound 0.25 µg/mL, partner 0.5 µg/mL	0.947
S. aureus Newman [7], first compound 0.25 µg/mL, partner 1 µg/mL	≥ 1
S. aureus Newman [7], first compound 0.25 µg/mL, partner 2 µg/mL	≥ 1
S. aureus Newman [7], first compound 0.5 µg/mL, partner 0.5 µg/mL	0.949
S. aureus Newman [7], first compound 0.5 µg/mL, partner 1 µg/mL	0.993
S. aureus Newman [7], first compound 0.5 µg/mL, partner 2 µg/mL	≥ 1
S. pneumoniae D39V [6], first compound 1 µg/mL, partner 2 µg/mL	0.952
S. pneumoniae D39V [6], first compound 1 µg/mL, partner 4 µg/mL	0.917
S. pneumoniae D39V [6], first compound 1 µg/mL, partner 8 µg/mL	0.868
S. pneumoniae D39V [6], first compound 2 µg/mL, partner 2 µg/mL	0.956
S. pneumoniae D39V [6], first compound 2 µg/mL, partner 4 µg/mL	0.905
S. pneumoniae D39V [6], first compound 2 µg/mL, partner 8 µg/mL	0.877
S. pneumoniae D39V [6], first compound 4 µg/mL, partner 8 µg/mL	0.724

fitness, one replicate, main component drawn
Settings	partner 0.0625 µg/mL	partner 0.125 µg/mL	partner 0.25 µg/mL	partner 0.375 µg/mL	partner 0.75 µg/mL	partner 1.5 µg/mL
B. subtilis 168 [5], first compound 1 µg/mL	0.718	0.499	0.0176	–	–	–
S. aureus Newman [7], first compound 0.125 µg/mL	–	–	–	≥ 1	≥ 1	0.656
S. aureus Newman [7], first compound 0.25 µg/mL	–	–	–	≥ 1	≥ 1	0.153
S. aureus Newman [7], first compound 0.5 µg/mL	–	–	–	≥ 1	≥ 1	0.237

CC1(C)S[C@@H]2[C@H](NC(=O)[C@H](N)c3ccc(O)cc3)C(=O)N2[C@H]1C(=O)O [Amoxicillin] + CC[C@H]1OC(=O)[C@H](C)[C@@H](O[C@H]2C[C@@](C)(OC)[C@@H](O)[C@H](C)O2)[C@H](C)[C@@H](O[C@@H]2O[C@H](C)C[C@H](N(C)C)[C@H]2O)[C@](C)(O)C[C@@H](C)CN(C)[C@H](C)[C@@H](O)[C@]1(C)O [Azithromycin]
Settings	Bliss interaction score
B. subtilis 168 [1]	-0.0431
S. aureus DSM 20231 [4]	-0.0724
S. aureus Newman [3]	-0.0697
S. pneumoniae D39V [2]	0.156

fitness
Settings	first compound 0.0625 µg/mL	first compound 0.125 µg/mL	first compound 0.25 µg/mL
S. aureus DSM 20231 [8], partner 0.125 µg/mL	0.527	–	0.0737
S. aureus DSM 20231 [8], partner 0.25 µg/mL	0.614	–	0.0516
S. aureus DSM 20231 [8], partner 0.5 µg/mL	0.277	0.108	0.0273
S. aureus Newman [7], partner 0.125 µg/mL	0.788	0.795	0.757
S. aureus Newman [7], partner 0.25 µg/mL	0.816	0.805	0.71
S. aureus Newman [7], partner 0.5 µg/mL	0.681	–	–

S. aureus DSM 20231 [8], first compound 0.5 µg/mL, one replicate
Settings	fitness
partner 0.125 µg/mL	0.0165
partner 0.25 µg/mL	0.004
partner 0.5 µg/mL	0.0043

CC1(C)S[C@@H]2[C@H](NC(=O)[C@H](N)c3ccc(O)cc3)C(=O)N2[C@H]1C(=O)O [Amoxicillin] + O=C(N[C@H](CO)[C@H](O)c1ccc([N+](=O)[O-])cc1)C(Cl)Cl [Chloramphenicol]
Settings	Bliss interaction score
B. subtilis 168 [1]	0.122
S. aureus DSM 20231 [4]	-0.0444
S. aureus Newman [3]	-0.108
S. pneumoniae D39V [2]	0.165

fitness
Settings	first compound 0.0625 µg/mL	first compound 0.125 µg/mL	first compound 0.25 µg/mL
S. aureus DSM 20231 [8], partner 0.75 µg/mL	0.446	–	0.041
S. aureus DSM 20231 [8], partner 1.5 µg/mL	0.323	0.162	0.0389
S. aureus DSM 20231 [8], partner 3 µg/mL	0.0721	0.0829	0.0294
S. aureus Newman [7], partner 0.75 µg/mL	0.724	0.718	–
S. aureus Newman [7], partner 3 µg/mL	–	0.139	–

S. aureus DSM 20231 [8], first compound 0.5 µg/mL, one replicate
Settings	fitness
partner 0.75 µg/mL	0.0382
partner 1.5 µg/mL	0.005
partner 3 µg/mL	0.0307

Reference: the supplement of paper PMC10627819
